From patent publication US5994334A, “Androgen synthesis inhibitors” (priority 1997, dated 1999)
Where two headings read alike, the source gives them in different places.

Tests used:
[1] = target: T1, Human Prostatic 5α-Reductase (Homo sapiens, UniProt P31213); assay: Inhibition of human prostatic 5α-reductase (prostatic microsomes, [3H]testosterone); conditions: for inhibition at 0.01 µM: read-out: % Inhibition of 5α-reductase, [I] 10 nM; for inhibition at 0.1 µM: read-out: % Inhibition of 5α-reductase, [I] 100 nM; for IC50: IC50 5α-reductase
T1 sequence (P31213 1-254): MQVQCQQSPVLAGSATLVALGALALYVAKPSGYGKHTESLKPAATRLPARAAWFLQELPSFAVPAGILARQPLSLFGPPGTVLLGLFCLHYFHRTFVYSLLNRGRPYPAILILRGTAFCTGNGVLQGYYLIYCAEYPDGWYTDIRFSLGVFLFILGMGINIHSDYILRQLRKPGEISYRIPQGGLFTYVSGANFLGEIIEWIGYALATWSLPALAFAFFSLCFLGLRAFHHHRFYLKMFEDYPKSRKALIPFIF

adrenal 17α-hydroxylase = assay: Inhibition of adrenal 17α-hydroxylase; format: biochemical; conditions: guinea pig adrenal
Protocol: (§1) These studies were carried out using guinea pig adrenals. In contrast to the rat, the guinea pig synthesizes cortisol, like the human. […] I-5 and I-7 were of interest, as they had relatively little (4%) or no effect on the adrenal 17α-hydroxylase required for cortisol synthesis but had moderately strong effects on the C17,20 -lyase causing reduction in adrenal androgen synthesis (77% and 63%, respectively).

[2] = target: T2, Human Testicular 17α-Hydroxylase (Homo sapiens, UniProt P05093); assay: Inhibition of human testicular 17α-hydroxylase (pregnenolone substrate, testicular microsomes); format: biochemical; conditions: IC50 17α-OHase
T2 construct: incubating human testicular microsomes; from tissue; host or cells: human testis, microsomes
T2 sequence (P05093 1-508): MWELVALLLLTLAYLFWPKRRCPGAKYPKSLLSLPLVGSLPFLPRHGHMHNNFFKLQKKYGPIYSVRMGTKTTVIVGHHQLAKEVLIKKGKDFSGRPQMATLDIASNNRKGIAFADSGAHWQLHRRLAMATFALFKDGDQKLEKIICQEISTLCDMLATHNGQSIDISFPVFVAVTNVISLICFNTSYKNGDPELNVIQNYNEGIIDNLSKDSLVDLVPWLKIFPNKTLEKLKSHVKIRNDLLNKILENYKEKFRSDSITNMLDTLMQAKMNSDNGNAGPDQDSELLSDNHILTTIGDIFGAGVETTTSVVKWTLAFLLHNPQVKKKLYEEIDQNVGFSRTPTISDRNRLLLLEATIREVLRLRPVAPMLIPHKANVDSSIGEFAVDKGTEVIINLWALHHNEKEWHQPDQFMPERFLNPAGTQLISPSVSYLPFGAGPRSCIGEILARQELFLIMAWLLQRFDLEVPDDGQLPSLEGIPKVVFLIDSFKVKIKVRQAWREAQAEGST
In short: (§2)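 Human testicular microsomes were incubated with radiolabeled pregnenolone and a range of test compound concentrations. Substrate, 17α-hydroxypregnenolone and DHEA were separated and quantified by reverse-phase HPLC. Hydroxylase activity came from total conversion to 17α-hydroxypregnenolone plus DHEA; lyase activity from conversion to DHEA alone.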

[3] = target: T3, Human Testicular C17,20-lyase (Homo sapiens, UniProt P05093); assay: Inhibition of human testicular C17,20-lyase (pregnenolone substrate, testicular microsomes); format: biochemical
T3 construct: incubating human testicular microsomes; from tissue; host or cells: human testis, microsomes
T3 sequence (P05093 1-508): T2 sequence (P05093 1-508)
In short: as §2

adrenal C17,20-lyase = assay: Inhibition of adrenal C17,20-lyase; format: biochemical; conditions: guinea pig adrenal
Protocol: as §1

[4] = target: T4, human 17α-hydroxylase/C17,20-lyase (Homo sapiens, UniProt P05093); assay: Inhibition of human testicular 17α-hydroxylase/C17,20-lyase (enzyme complex as a whole); format: biochemical; conditions: for inhibition of 17α-hydroxylase/C17,20-lyase (in words): NI = no inhibition
T4 construct: incubating human testicular microsomes; from tissue; host or cells: human testis, microsomes
T4 sequence (P05093 1-508): T2 sequence (P05093 1-508)
In short: as §2

[5] = tested on: mutant AR which is expressed in LNCaP cells; assay: Androgen receptor-mediated gene transcription, mutant AR of LNCaP cells (luciferase, CV1 cells); format: cell-based, human
[6] = tested on: LNCaP human prostatic tumors; assay: Human prostatic cancer (LNCaP) xenograft in male nude mice; format: in vivo, human (LNCaP) tumors in BALB/c male athymic mice; conditions: 1 mg/mouse/day s.c.
Protocol: We have reported that inoculation of MCF-7 breast cancer cells in Matrigel increases mammary tumor formation in nude mice (Yue et al., 1994). The same procedure was therefore utilized to develop tumors from human prostatic cancer cells (LNCAP) in male nude mice. BALB/c male athymic mice, 4-6 weeks old, were inoculated sc with LNCaP cells suspended in Matrigel (10 mg/ml). Four sites per mouse were injected with 1.8×10^6 cells in 0.1 ml Matrigel. Treatment began when the tumor reached about 100 mm^3 in volume. Tumors were measured before the treatment began and once a week during treatment. Tumor volume was calculated by the formula 4/3πr1^2 r2 (r1 <r2).At the end of treatment, the mice were sacrificed and individual tumors were weighed. The latency of tumor development was 30-40 days and overall tumorigenicity was 82%.
In a further experiment, two mice were treated with I-16 (1 mg/mouse/day, s.c.) beginning 45 days after cell inoculation. Two mice received vehicle as controls. […] The mean tumor weight was 198.78±72 mg in I-16 treated mice compared to 386.3±147.2 mg in the control group. In other experiments, I-47 and I-49 were effective in controlling tumor growth. The total tumor volume of the control mice increased to 884.0% of the initial volume.

normal male rats = assay: In vivo studies in normal male rats: hormone levels; parameters: species or system rat; conditions: rat
From the text: (§3) Studies in normal male rats have been carried out with 4-pregnen-3-one-20β-carboxaldehyde (I-16) (Li et al., 1992) and with its 20-carboxaldoxime (I-23)(Li et al., 1995).

[7] = tested on: rat 17α-hydroxylase/C17,20-lyase; assay: Inhibition of rat 17α-hydroxylase/C17,20-lyase; format: biochemical
From the text: as §3

[8] = target: human androgen receptor (AR) (Homo sapiens, UniProt P10275); assay: Androgen receptor-mediated gene transcription, wild-type AR (luciferase, CV1 cells); format: cell-based; conditions: against DHT stimulation
[9] = tested on: LNCaP human prostatic cancer cell line; assay: Androgen-dependent growth of LNCaP cells
Protocol: The ability of various inhibitors to reverse the stimulatory effect of testosterone on the growth of the LNCaP human prostatic cancer cell line was tested by comparing cell number in wells treated for 9 days with either drug vehicle only (control), 0.1 nM testosterone only, or 0.1 nM testosterone with inhibitor at 0.3, 1, 2.5, or 5 μM.

BPH patients = conditions: cited from earlier work; for serum testosterone levels (in words): human, in vivo
TRPM-2 gene = conditions: vs castration; cited from earlier work
[10] = tested on: 5α-reductase Type I and Type II isoforms; conditions: cited from earlier work
[11] = tested on: 17α-hydroxylase/C17,20-lyase; conditions: cited from earlier work
[12] = tested on: cytochrome P450 steroidogenic enzymes; conditions: human, in vivo; cited from earlier work
C17,20-lyase = conditions: [3H]-progesterone substrate; read-out: IC50 C17,20-lyase (Potter et al.); cited from earlier work
dogs = conditions: vs finasteride; cited from earlier work
[13] = substrate: CC(=O)[C@H]1CC[C@H]2[C@@H]3CCC4=CC(=O)CC[C@]4(C)[C@H]3CC[C@]12C; assay: Inhibition kinetics of rat 17α-hydroxylase, progesterone substrate; format: biochemical; conditions: other: substrate
[14] = substrate: CC(=O)[C@@]1(O)CC[C@H]2[C@@H]3CCC4=CC(=O)CC[C@]4(C)[C@H]3CC[C@@]21C; assay: Inhibition kinetics of rat C17,20-lyase, 17α-hydroxyprogesterone substrate; format: biochemical; conditions: other: substrate

human androgen receptor (AR), sequence (P10275 whole entry): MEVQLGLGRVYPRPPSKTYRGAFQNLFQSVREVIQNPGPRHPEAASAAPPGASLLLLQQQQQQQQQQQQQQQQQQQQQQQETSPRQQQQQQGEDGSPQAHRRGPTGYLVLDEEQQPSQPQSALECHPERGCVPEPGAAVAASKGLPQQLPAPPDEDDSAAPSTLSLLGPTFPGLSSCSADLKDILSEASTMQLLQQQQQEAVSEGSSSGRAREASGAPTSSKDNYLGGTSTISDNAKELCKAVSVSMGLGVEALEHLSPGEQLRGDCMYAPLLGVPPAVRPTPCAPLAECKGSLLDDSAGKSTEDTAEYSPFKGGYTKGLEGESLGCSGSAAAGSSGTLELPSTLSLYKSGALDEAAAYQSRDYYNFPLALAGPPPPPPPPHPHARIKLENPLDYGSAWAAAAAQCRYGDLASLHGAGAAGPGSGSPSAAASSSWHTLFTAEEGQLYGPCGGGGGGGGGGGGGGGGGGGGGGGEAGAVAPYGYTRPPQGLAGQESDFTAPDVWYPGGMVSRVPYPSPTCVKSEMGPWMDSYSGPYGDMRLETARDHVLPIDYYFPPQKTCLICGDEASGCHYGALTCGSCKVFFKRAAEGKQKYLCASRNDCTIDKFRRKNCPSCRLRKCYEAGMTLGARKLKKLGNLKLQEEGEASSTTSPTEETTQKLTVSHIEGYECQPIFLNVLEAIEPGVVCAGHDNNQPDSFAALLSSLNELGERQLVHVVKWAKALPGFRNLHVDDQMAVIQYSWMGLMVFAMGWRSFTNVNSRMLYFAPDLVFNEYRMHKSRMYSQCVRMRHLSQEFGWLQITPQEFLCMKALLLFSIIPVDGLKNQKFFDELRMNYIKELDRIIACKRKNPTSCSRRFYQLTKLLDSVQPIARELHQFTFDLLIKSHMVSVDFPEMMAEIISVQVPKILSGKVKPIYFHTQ

CC(=NO)C1=CC[C@H]2[C@@H]3CC=C4C[C@@H](O)CC[C@]4(C)[C@H]3CC[C@]12C [Compound I-5, 16-dehydropregnenolone-20-oxime]
inhibition at 0.01 µM [1]: 0%
inhibition at 0.1 µM [1]: 5.92%
effect on adrenal 17α-hydroxylase (adrenal 17α-hydroxylase; 17α-hydroxylase required for cortisol synthesis): 4%
IC50 [2]: 16 nM
IC50 ([3]; IC50 C17,20 lyase): 16 nM
reduction in adrenal androgen synthesis (C17,20-lyase) (adrenal C17,20-lyase): 77%
inhibition of 17α-hydroxylase/C17,20-lyase (in words) [4]: potent inhibition
fold more potent inhibition than 20-oxime (I-1) ([4]; vs I-1): 35 fold

C[C@]12CC[C@H]3[C@@H](CC=C4C[C@@H](O)CC[C@@]43C)[C@@H]1CC[C@@H]2[C@]1(C)CO1 [Compound I-7]
inhibition at 0.01 µM [1]: 13.6%
inhibition at 0.1 µM [1]: 12.1%
effect on adrenal 17α-hydroxylase (in words) (adrenal 17α-hydroxylase): no effect
IC50 ([3]; Table 1, NI = no inhibition, CI = complete inhibition, read-out: IC50 C17,20 lyase): 720 nM
reduction in adrenal androgen synthesis (C17,20-lyase) (adrenal C17,20-lyase): 63%

C[C@H](C=O)[C@H]1CC[C@H]2[C@@H]3CCC4=CC(=O)CC[C@]4(C)[C@H]3CC[C@]12C [Compound I-16, 4-pregnen-3-one-20β-carboxaldehyde]
agonism/antagonism at mutant AR of LNCaP cells (in words) [5]: agonists
inhibition at 0.01 µM [1]: 20.5%
inhibition at 0.1 µM [1]: 87.2%
total tumor volume (% of initial volume), 3 weeks ([6]; 3 weeks, two mice, control 281%): 173.6%
mean tumor weight, 3-week experiment ([6]; control 386.3±147.2 mg): 198.78 ± 72 mg
reduction of testosterone and DHT levels in serum, testicular and prostatic tissues (in words) (normal male rats): significantly reducing testosterone and DHT levels
inhibition of rat 17α-hydroxylase/C17,20-lyase (in words) [7]: inhibit rat 17α-hydroxylase/C17,20 -lyase
antagonism of wild-type AR (in words) [8]: dose-dependent antagonism
inhibition of 17α-hydroxylase/C17,20-lyase (in words) [4]: significant inhibition

CC(C)(C)NC(=O)[C@H]1CC[C@H]2[C@@H]3CC[C@H]4NC(=O)C=C[C@]4(C)[C@H]3CC[C@]12C [Finasteride, reference compound]
reversal of DHT-stimulated LNCaP growth (in words) ([9]; 0.03 nM DHT): dose-dependent reversal
reversal of testosterone-stimulated LNCaP growth at 5 μM (in words) ([9]; 0.1 nM testosterone, inhibitor 5 μM): almost completely reversed
reversal of testosterone-stimulated LNCaP growth (in words) ([9]; 0.1 nM testosterone, inhibitor 0.3-5 μM, 9 days): dose-dependent reversal
IC50 ([9]; Homo sapiens, LNCaP, 216 h, read-out: concentration reducing the stimulatory effect of testosterone by 50%): ≤ 1000 nM
IC50 [1]: 14 nM
IC50 ([1]; Table 2): 14 nM
IC50 ([1]; Table 3, NI = no inhibition): 14.4 nM
inhibition at 0.01 µM [1]: 41.2%
inhibition at 0.1 µM [1]: 88.3%
inhibition at 0.4 µM ([1]; read-out: % Inhibition of 5α-reductase, [I] 400 nM): 93%
serum testosterone levels (in words) (BPH patients): increase serum testosterone levels
gynecomastia in long-term treatment (in words) (BPH patients; long-term treatment): some patients developed gynecomastia which led to breast cancer in a few cases
reduction of serum DHT (BPH patients; patients): 65-80%
TRPM-2 expression (in words) (TRPM-2 gene): not by finasteride treatment
potency at 5α-reductase Type II vs Type I (in words) [10]: more potent inhibitor of the Type II than of the Type I isoform

CC(=O)N1CCN(c2ccc(OCC3COC(Cn4ccnc4)(c4ccc(Cl)cc4Cl)O3)cc2)CC1 (centres unmarked) [Ketoconazole]
inhibition of 17α-hydroxylase/C17,20-lyase, literature (in words) [11]: not very potent
side-effects (in words) [12]: inhibition of several other cytochrome P450 steroidogenic enzymes, and reduction of cortisol production
IC50 (C17,20-lyase): 26 nM

C[C@]12C=CC(=O)N[C@@H]1CC[C@@H]1[C@@H]2CC[C@]2(C)[C@@H](C(=O)c3ccccc3)CC[C@@H]12 [MK-434]
serum testosterone levels (in words) (BPH patients): increase serum testosterone levels
reduction of prostatic DHT in dogs (in words) (dogs): reduces prostatic DHT levels in dogs more effectively than finasteride

B1: rat 17α-hydroxylase (Rattus norvegicus) (protein)
chain: MWELVGLLLLILAYFFWVKSKTPGAKLPRSLPSLPLVGSLPFLPRRGHMHVNFFKLQEKYGPIYSLRLGTTTTVIIGHYQLAREVLIKKGKEFSGRPQMVTQSLLSDQGKGVAFADAGSSWHLHRKLVFSTFSLFKDGQKLEKLICQEAKSLCDMMLAHDKESIDLSTPIFMSVTNIICAICFNISYEKNDPKLTAIKTFTEGIVDATGDRNLVDIFPWLTIFPNKGLEVIKGYAKVRNEVLTGIFEKCREKFDSQSISSLTDILIQAKMNSDNNNSCEGRDPDVFSDRHILATVGDIFGAGIETTTTVLKWILAFLVHNPEVKKKIQKEIDQYVGFSRTPTFNDRSHLLMLEATIREVLRIRPVAPMLIPHKANVDSSIGEFTVPKDTHVVVNLWALHHDENEWDQPDQFMPERFLDPTGSHLITPTQSYLPFGAGPRSCIGEALARQELFVFTALLLQRFDLDVSDDKQLPRLEGDPKVVFLIDPFKVKITVRQAWMDAQAEVST
Km [13]: 0.029 µM

B2: rat C17,20-lyase (Rattus norvegicus) (protein)
chain: B1 chain
Km [14]: 0.076 µM
